Measured values published in patent US8759481B2, “Peptide vaccines for cancers expressing tumor-associated antigens” (Oncotherapy Science, Inc., priority 2007, dated 2014).

System: CD8+ T cells (HLA-A*0201 donors)
Assay: In vitro CTL induction with peptide-pulsed DCs (positive donor number)
Format: cell-based, human
Settings: HLA-A*0201, 9-mer peptides derived from INHBB; positive/total donors
Outline: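 Monocyte-derived DCs (GM-CSF/IL-4, 7 days) pulsed with 20 μg/ml peptide plus β2-microglobulin, MMC-inactivated, co-cultured 1:20 with autologous CD8+ T cells with IL-7, then IL-2; restimulated days 7 and 14. CTL activity tested against peptide-pulsed T2 cells on day 21; value = positive donors/total donors.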

VQCDSCQEL
positive donor number: 0/1
